Like-named read-outs stand apart in the source and are kept apart here.
Tested on: anthelmintic/nematicide-resistant C. elegans mutant strains
Assay: microbe, parasite or virus in culture
Conditions: for LC50: Caenorhabditis elegans
Text: In addition to the Caenorhabditis elegans wild-type N2 strain, this work included the following C. elegans strains: CB1003 (kynu-1(e1003) X); anthelmintic-resistant strains—CB3474 (ben-1(e1880) III), CB193 (unc-29(e193) I), HY496 (bre-1(ye4) IV), RB2119 (acr-23(ok2804) V), JD608 (avr-14(ad1302) I; avr-15(ad1051) V; glc-1 (pk54) V), NM1968 (slo-1(js379) V), RP2635 (mev-1(tr355) III); benzimidazole-resistant CRISPR strains—ECA882 (ben-1(ean64) III), ECA917 (ben-1(ean98) III), ECA1075 (ben-1(ean143) III), ECA1080 (ben-1(ean148) III). This work also featured several additional free-living nematode strains: C. briggsae strain AF16, P. pacificus strain PS312, and P. hermaphrodita strain B178. The four CRISPR-generated benzimidazole-resistant C. elegans mutants were generously provided by Prof. Erik Andersen (Johns Hopkins University); PS312 and B178 were generously provided by Prof. Peter Roy (University of Toronto); all other strains were obtained from the Caenorhabditis Genetics Center (CGC, University of Minnesota). All strains were cultured and propagated at 20 °C on NGM (nematode growth medium) agar plates seeded with E. coli OP50 (Stiernagle, 2006)[56].
Liquid development and viability assays were adapted from a previously established chemical screening protocol (Burns et al.)[24]. In brief, a saturated culture of E. coli HB101 was concentrated 2-fold in liquid NGM and 40 μL of this suspension was distributed to each well of a 96-well flat-bottom culture plate. 0.5 μL chemical solution (or DMSO alone) was added to each well (1% DMSO v/v) using either a multi-channel pipette or a pinning tool (V&P Scientific). L1 worms synchronized from an embryo preparation performed the day prior were diluted to a concentration of ~2 worms/μL in M9 buffer; 10 μL worm suspension was then added to each well. Culture plates were sealed with parafilm and placed in a plastic container lined with wet paper towels to prevent evaporation. Containers were then incubated for 6 days at 20 °C with shaking at 165 rpm. Following incubation, 300 μL M9 was added to each well to decrease the turbidity of the HB101-NGM suspension. Single images of each microplate well were then taken on a Nikon Ti Eclipse inverted microscope (Nikon NIS Elements AR). Images were processed using Python scripts to isolate worm-associated pixels from background. Scores of worm development and viability were determined as the sum of worm-associated pixels in each well. Development/viability scores for each well were divided by the development /viability scores for the corresponding DMSO controls, resulting in a relative viability value for each chemical. At least three biological replicates were performed for each dose-response experiment; relative viability values were averaged across replicates.
Supplementary Table 2. Sensitivity of anthelmintic/nematicide-resistant strains to Class A, B, and C
benzimidazole complex I inhibitors.
LC50s were estimated from fitted dose-
response curves; all dose response data are the mean of at least three biological replicates.
Supplementary Table 2. Davie et al.

[1] = read-out: C. elegans Development & Viability LC50, acr-23(ok2804)
[2] = read-out: C. elegans Development & Viability LC50, avr-14(ad1302), avr-15(ad1051), glc-1(pk54)
[3] = read-out: C. elegans Development & Viability LC50, ben-1(e1880)
[4] = read-out: C. elegans Development & Viability LC50, bre-1(ye4)
[5] = read-out: C. elegans Development & Viability LC50, mev-1(tr355)
[6] = read-out: C. elegans Development & Viability LC50, slo-1(js379)
[7] = read-out: C. elegans Development & Viability LC50, unc-29(e193)

Q: For `CC(C)Cc1ccc(C(C)c2nc3ccccc3n2C)cc1` (centres unmarked) [NPD8790], which LC50 [1] is on record?
A: The LC50 was > 1000 µM.

Q: What about the LC50 [2] of the same compound?
A: Its LC50 is > 1000 µM.

Q: And the LC50 [3]?
A: The LC50 was > 1000 µM.

Q: What about the LC50 [4] of the same compound?
A: The LC50 was > 1000 µM.

Q: And the LC50 [5]?
A: The LC50 was > 1000 µM.

Q: What about the LC50 [6] of the same compound?
A: The LC50 was 177 µM.

Q: What about the LC50 [7] of the same compound?
A: The LC50 was > 1000 µM.

Q: What does the source list for `C=C(C)[C@H]1Cc2c(ccc3c2O[C@@H]2COc4cc(OC)c(OC)cc4[C@@H]2C3=O)O1` [Rotenone, reference compound]?
A: LC50 [1]: 2.1 µM; LC50 [2]: 1.4 µM; LC50 [3]: 3.4 µM; LC50 [4]: 3.5 µM; LC50 [5]: 3.2 µM; LC50 [6]: 1 µM; LC50 [7]: 1.5 µM

Q: Which results are given for `c1ccc2[nH]c(-c3cscn3)nc2c1` [Thiabendazole]?
A: C. elegans L1 relative development & viability (CB3474 G104D (ben-1), 1 µM, score 0-1 relative to DMSO, values >1 set to 1): 1.000; C. elegans L1 relative development & viability (CB3474 G104D (ben-1), 2 µM, score 0-1 relative to DMSO, values >1 set to 1): 1.000; C. elegans L1 relative development & viability (CB3474 G104D (ben-1), 3.9 µM, score 0-1 relative to DMSO, values >1 set to 1): 1.000; C. elegans L1 relative development & viability (CB3474 G104D (ben-1), 15.6 µM, score 0-1 relative to DMSO, values >1 set to 1): 1.000; C. elegans L1 relative development & viability (CB3474 G104D (ben-1), 31.3 µM, score 0-1 relative to DMSO, values >1 set to 1): 1.000; C. elegans L1 relative development & viability (CB3474 G104D (ben-1), 62.5 µM, score 0-1 relative to DMSO, values >1 set to 1): 1.000; C. elegans L1 relative development & viability (CB3474 G104D (ben-1), 125 µM, score 0-1 relative to DMSO, values >1 set to 1): 1.000; C. elegans L1 relative development & viability (CB3474 G104D (ben-1), 250 µM, score 0-1 relative to DMSO, values >1 set to 1): 1.000; C. elegans L1 relative development & viability (CB3474 G104D (ben-1), 500 µM, […]): 0.035; C. elegans L1 relative development & viability (ECA917 F200Y (ben-1), 1 µM, score 0-1 relative to DMSO, values >1 set to 1): 1.000; C. elegans L1 relative development & viability (ECA917 F200Y (ben-1), 2 µM, score 0-1 relative to DMSO, values >1 set to 1): 1.000; C. elegans L1 relative development & viability (ECA917 F200Y (ben-1), 3.9 µM, score 0-1 relative to DMSO, values >1 set to 1): 1.000; C. elegans L1 relative development & viability (ECA917 F200Y (ben-1), 15.6 µM, score 0-1 relative to DMSO, values >1 set to 1): 1.000; C. elegans L1 relative development & viability (ECA917 F200Y (ben-1), 31.3 µM, score 0-1 relative to DMSO, values >1 set to 1): 1.000; C. elegans L1 relative development & viability (ECA917 F200Y (ben-1), 62.5 µM, score 0-1 relative to DMSO, values >1 set to 1): 1.000; C. elegans L1 relative development & viability (ECA917 F200Y (ben-1), 125 µM, score 0-1 relative to DMSO, values >1 set to 1): 1.000; C. elegans L1 relative development & viability (ECA917 F200Y (ben-1), 250 µM, score 0-1 relative to DMSO, values >1 set to 1): 1.000; C. elegans L1 relative development & viability (ECA917 F200Y (ben-1), 500 µM, […]): 0.056; C. elegans L1 relative development & viability (ECA1075 F167Y (ben-1), 1 µM, score 0-1 relative to DMSO, values >1 set to 1): 1.000; C. elegans L1 relative development & viability (ECA1075 F167Y (ben-1), 2 µM, score 0-1 relative to DMSO, values >1 set to 1): 1.000; C. elegans L1 relative development & viability (ECA1075 F167Y (ben-1), 3.9 µM, score 0-1 relative to DMSO, values >1 set to 1): 1.000; C. elegans L1 relative development & viability (ECA1075 F167Y (ben-1), 15.6 µM, score 0-1 relative to DMSO, values >1 set to 1): 1.000; C. elegans L1 relative development & viability (ECA1075 F167Y (ben-1), 31.3 µM, score 0-1 relative to DMSO, values >1 set to 1): 1.000; C. elegans L1 relative development & viability (ECA1075 F167Y (ben-1), 62.5 µM, score 0-1 relative to DMSO, values >1 set to 1): 1.000; C. elegans L1 relative development & viability (ECA1075 F167Y (ben-1), 125 µM, score 0-1 relative to DMSO, values >1 set to 1): 1.000; C. elegans L1 relative development & viability (ECA1075 F167Y (ben-1), 250 µM, score 0-1 relative to DMSO, values >1 set to 1): 1.000; C. elegans L1 relative development & viability (ECA1075 F167Y (ben-1), 500 µM, […]): 0.028; C. elegans L1 relative development & viability (ECA1080 E198A (ben-1), 1 µM, score 0-1 relative to DMSO, values >1 set to 1): 1.000; C. elegans L1 relative development & viability (ECA1080 E198A (ben-1), 2 µM, score 0-1 relative to DMSO, values >1 set to 1): 1.000; C. elegans L1 relative development & viability (ECA1080 E198A (ben-1), 3.9 µM, score 0-1 relative to DMSO, values >1 set to 1): 1.000; C. elegans L1 relative development & viability (ECA1080 E198A (ben-1), 15.6 µM, score 0-1 relative to DMSO, values >1 set to 1): 1.000; C. elegans L1 relative development & viability (ECA1080 E198A (ben-1), 31.3 µM, score 0-1 relative to DMSO, values >1 set to 1): 1.000; C. elegans L1 relative development & viability (ECA1080 E198A (ben-1), 62.5 µM, score 0-1 relative to DMSO, values >1 set to 1): 1.000; C. elegans L1 relative development & viability (ECA1080 E198A (ben-1), 125 µM, score 0-1 relative to DMSO, values >1 set to 1): 1.000; C. elegans L1 relative development & viability (ECA1080 E198A (ben-1), 250 µM, score 0-1 relative to DMSO, values >1 set to 1): 1.000; C. elegans L1 relative development & viability (ECA1080 E198A (ben-1), 500 µM, […]): 0.041
